Experimental data: patent US7875587B2, “Peptide analogues of GIP for treatment of diabetes, insulin resistance and obesity” (UUTECH Limited, priority 2004, dated 2011)
Starred links: 1 amine or outer side, 2 acyl side, 3 side chain; linkers in the order of their positions; H or OH if unused. Non-standard residues stand in square brackets, D forms with d. No end group written: not given here. X1 = O=C([C@H](Cc1ccc(O)cc1)N(C[C@H](O)[C@@H](O)[C@H](O)[C@H](O)CO)[*:1])[*:2]; Hyp = O=C(O)[C@@H]1C[C@@H](O)CN1

Columns and labels:
[1] = system: BRIN-BD11 cells; assay: GIP-stimulated insulin release from BRIN-BD11 cells (antagonism); assay type: cell-based; conditions: 5.6 mM glucose, native GIP 10^-7 M
Description: Tissue culture. […] Cells were maintained in sterile tissue culture flasks (Corning Glass Works, Sunderland, UK) at 37° C. in an atmosphere of 5% CO2 and 95% air using an LEEC incubator (Laboratory Technical Engineering, Nottingham, UK). Acute studies of insulin release. Insulin release from BRIN-BD11 cells was determined using cell monolayers ([…]. et al., 1996, Diabetes 45:1132-1140). Cells were harvested with the aid of trypsin/EDTA (Gibco), seeded into 24-multiwell plates (Nunc, Roskilde, Denmark) at a density of 1.0×10^5 cells per well, and allowed to attach overnight at 37° C.

[2] = Degradation of GIP and analogues by human plasma (HPLC); assay type: in vitro ADME
Description: Degradation of GIP and Tyr^1-glucitol GIP by human plasma. […] […] The reactions were terminated by addition of 5 μl of TFA and the final volume adjusted to 1.0 ml using 0.1% v/v TFA/water. Samples were centrifuged (13,000 g, 5 minutes) and the supernatant applied to a C-18 Sep-Pak cartridge (Millipore-Waters) which was previously primed and washed with 0.1% (v/v) TFA/water. […] The volume was adjusted to 1.0 ml with 0.12% (v/v) TFA/water prior to HPLC purification.
(§1) HPLC analysis of degraded GIP and Tyr^1-glucitol GIP. […] Using 0.1% (v/v) TFA in 70% acetonitrile/H20, the concentration of acetonitrile in the eluting solvent was raised from 0% to 31.5% over 15 min, to 38.5% over 30 minutes and from 38.5% to 70% over 5 minutes, using linear gradients. The absorbance was monitored at 206 nm and peak areas evaluated using a model 2221 LKB integrator. Samples recovered manually were concentrated using a Speed-Vac concentrator.
(§2) Electrospray ionization-mass spectrometry (ESI-MS) was carried out as described in Example 2. Degradation of GIP and novel GIP analogues by DPP IV and human plasma was carried out as described in Example 2.

[3] = system: Wistar rats; assay: In vivo plasma glucose and insulin after i.p. glucose with peptide in Wistar rats; parameters: species or system rat
Description: In vivo biological activity of GIP and Tyr^1-glucitol GIP. Effects of GIP and Tyr^1-glucitol GIP on plasma glucose and insulin concentrations were examined using 10-12 week old male Wistar rats. The animals were housed individually in an air conditioned room and 22±2° C. with a 12 hour light/12 hour dark cycle. Drinking water and a standard rodent maintenance diet (Trouw Nutrition, Belfast, Northern Ireland) were supplied ad libitum. Food was withdrawn for an 18 hour period prior to intraperitoneal injection of glucose alone (18 mmol/kq body weight) or in combination with either GIP or Tyr^1-glucitol GIP (10 nmol/kg). Test solutions were administered in a final volume of 8 ml/kg body weight. Blood samples were collected at 0, 15, 30 and 60 minutes from the cut tip of the tail of conscious rats into chilled fluoride/heparin microcentrifuge tubes (Sarstedt, Numbrecht, Germany). Samples were centrifuged using a Beckman microcentrifuge for about 30 seconds at 13,000 g. Plasma samples were aliquoted and stored at −20° C. prior to glucose and insulin determinations. All animal studies were done in accordance with the Animals (Scientific Procedures) Act 1986.
Analyses. Plasma glucose was assayed by an automated glucose oxidase procedure using a Beckman Glucose Analyzer II [33]. Plasma insulin was determined by dextran charcoal radioimmunoassay as described previously. Incremental areas under plasma glucose and insulin area under the curve (AUC) were calculated using a computer program (CAREA) employing the trapezoidal rule with baseline subtraction. Results are expressed as mean±SEM and values were compared using the Student's unpaired t-test.

[4] = molecular target: T1, DPP IV (Sus scrofa, UniProt P22411); assay: Degradation of GIP and analogues by DPP IV (HPLC); assay type: in vitro ADME
T1 construct: purchased Sigma (Poole, Dorset, UK)
T1 sequence (P22411 whole entry): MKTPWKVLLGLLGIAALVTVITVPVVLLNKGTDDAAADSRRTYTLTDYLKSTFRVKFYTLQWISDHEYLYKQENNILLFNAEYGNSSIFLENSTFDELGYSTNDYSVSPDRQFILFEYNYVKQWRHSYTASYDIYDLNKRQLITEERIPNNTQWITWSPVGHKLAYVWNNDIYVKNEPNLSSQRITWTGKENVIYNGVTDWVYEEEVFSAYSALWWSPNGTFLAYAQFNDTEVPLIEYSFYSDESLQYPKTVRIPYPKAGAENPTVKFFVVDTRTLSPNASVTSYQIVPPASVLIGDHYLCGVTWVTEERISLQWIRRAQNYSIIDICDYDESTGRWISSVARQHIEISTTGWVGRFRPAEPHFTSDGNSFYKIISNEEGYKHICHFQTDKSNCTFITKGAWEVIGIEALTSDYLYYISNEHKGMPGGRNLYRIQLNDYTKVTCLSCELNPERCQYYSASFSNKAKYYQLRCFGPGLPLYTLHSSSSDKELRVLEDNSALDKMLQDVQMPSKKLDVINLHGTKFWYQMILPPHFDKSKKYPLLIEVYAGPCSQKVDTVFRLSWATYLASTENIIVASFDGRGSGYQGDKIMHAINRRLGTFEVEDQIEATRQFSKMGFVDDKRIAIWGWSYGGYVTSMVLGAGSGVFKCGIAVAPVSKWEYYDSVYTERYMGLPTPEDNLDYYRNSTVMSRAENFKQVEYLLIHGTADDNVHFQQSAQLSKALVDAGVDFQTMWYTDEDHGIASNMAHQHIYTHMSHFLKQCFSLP
Description: Degradation of GIP and Tyr^1-glucitol GIP by DPP IV. HPLC-purified GIP or Tyr^1-glucitol GIP were incubated at 37° C. with DPP-IV (5 mU) for various time periods in a reaction mixture made up to 500 μl with 50 mmol/l triethanolamine-HCl, pH 7.8 (final peptide concentration 1 mmol/l). Enzymatic reactions were terminated after 0, 2, 4 and 12 hours by addition of 5 μl of 10% (v/v) TFA/water. Samples were made up to a final volume of 1.0 ml with 0.12% (v/v) TFA and stored at −20° C. prior to HPLC analysis.
as §1, §2

[5] = system: BRIN-BD11 cells; assay: Acute tests for insulin secretion from BRIN-BD11 cells; assay type: cell-based
Description: Culture of insulin secreting cells. BRIN-BD11 cells were cultured in sterile tissue culture flasks (Corning, Glass Works, UK) using RPMI-1640 tissue culture medium containing 10% (v/v) foetal calf serum, 1% (v/v) antibiotics (100 U/ml penicillin, 0.1 mg/ml streptomycin) and 11.1 mM glucose. The cells were maintained at 37° C. in an atmosphere of 5% CO2 and 95% air using a LEEC incubator (Laboratory Technical Engineering, Nottingham, UK).
Acute tests for insulin secretion. Before experimentation, the cells were harvested from the surface of the tissue culture flasks with the aid of trypsin/EDTA (Gibco), seeded into 24-multiwell plates (Nunc, Roskilde, Denmark) at a density of 1.5×10^5 cells per well, and allowed to attach overnight at 37° C. Acute tests for insulin release were preceded by 40 minutes pre-incubation at 37° C. in 1.0 ml Krebs Ringer bicarbonate buffer (115 mM NaCl, 4.7 mM KCl, 1.28 mM CaCl2, 1.2 mM KH2PO4, 1.2 mM MgSO4, 10 mM NaHCO3, 5 g/l bovine serum albumin, pH 7.4) supplemented with 1.1 mM glucose. Test incubations were performed (n=12) at two glucose concentrations (5.6 mM and 16.7 mM) with a range of concentrations (10^−13 to 10^−8 M) of GIP or GIP analogues. After 20 minutes incubation, the buffer was removed from each well and aliquots (200 μl) were used for measurement of insulin by radioimmunoassay.

[6] = 10 nmol/kg i.p. with glucose 18 mmol/kg, rats

## (Hyp^3)GIP: Glu^3-substituted form of GIP (hydroxyproline at position 3) (YA[Hyp]GTFISDYSIAMDKIHQQDFVNWLLAQKGKKNDWKHNITQ)
[1]
  inhibition of GIP-stimulated insulin secretion: inhibited in a dose-dependent fashion

## (Lys^3)GIP: Glu^3-substituted form of GIP (lysine at position 3) (YAKGTFISDYSIAMDKIHQQDFVNWLLAQKGKKNDWKHNITQ)
[1]
  inhibition of GIP-stimulated insulin secretion: inhibited in a dose-dependent fashion

## (Phe^3)GIP: Glu^3-substituted form of GIP (phenylalanine at position 3) (YAFGTFISDYSIAMDKIHQQDFVNWLLAQKGKKNDWKHNITQ)
[1]
  inhibition of GIP-stimulated insulin secretion: inhibited in a dose-dependent fashion

## (Trp^3)GIP: Glu^3-substituted form of GIP (tryptophan at position 3) (YAWGTFISDYSIAMDKIHQQDFVNWLLAQKGKKNDWKHNITQ)
[1]
  inhibition of GIP-stimulated insulin secretion: inhibited in a dose-dependent fashion

## (Tyr^3)GIP: Glu^3-substituted form of GIP (tyrosine at position 3) (YAYGTFISDYSIAMDKIHQQDFVNWLLAQKGKKNDWKHNITQ)
[1]
  inhibition of GIP-stimulated insulin secretion: inhibited in a dose-dependent fashion

## GIP(3-42): N-terminally truncated GIP, main DPP IV metabolite after removal of Tyr^1-Ala^2 (EGTFISDYSIAMDKIHQQDFVNWLLAQKGKKNDWKHNITQ; listed as Homo sapiens)
[1]
  inhibition of GIP-stimulated insulin secretion: inhibited in a dose-dependent fashion

## [X1]AEGTFISDYSIAMDKIHQQDFVNWLLAQKGKKNDWKHNITQ [Glycated GIP]
[2]; 0 h
  % Intact peptide remaining after incubations with human plasma: 100%
[2]; 24 hours in the presence of DPA
  effect of DPA on plasma degradation of the peptide: complete abolition of degradation
[2]; 24 hours in the presence of DPA (diprotin A)
  % Intact peptide remaining after incubations with human plasma: 100%
[2]; Example 2, 4 hours incubation
  degradation by human plasma: did not result in the formation of any detectable degradation fragments
[2]; human, plasma, pH 7.8, 2 h, read-out: % Intact peptide remaining after incubations with human plasma
  remaining at 2 h, 20 µg/ml: 100%
[2]; human, plasma, pH 7.8, 4 h, read-out: % Intact peptide remaining after incubations with human plasma
  remaining at 4 h, 20 µg/ml: 100%
[2]; human, plasma, pH 7.8, 8 h, read-out: % Intact peptide remaining after incubations with human plasma
  remaining at 8 h, 20 µg/ml: 100%
[2]; human, plasma, pH 7.8, 24 h, read-out: % Intact peptide remaining after incubations with human plasma
  remaining at 24 h, 20 µg/ml: 100%
[3]; 10 nmol/kg i.p. with glucose
  overall insulin response (AUC) compared with glucose alone: significantly greater
  plasma insulin response (AUC) compared with GIP: significantly greater than after GIP
[3]; [6]
  increase of antihyperglycemic action relative to GIP, estimated from AUC: 38%
  increase of insulin-releasing action relative to GIP, estimated from AUC: 62%
[3]; 10 nmol/kg i.p. with glucose, vs GIP
  plasma glucose AUC compared to GIP: significantly lower
[3]; 10 nmol/kg i.p. with glucose, vs glucose alone, 0-60 min
  plasma glucose concentrations and AUC compared with control group: significantly lower
[4]; Example 2, 2-12 hours incubation
  stability on incubation with DPP IV: remained almost completely intact
[4]; Example 3, summary of Table 1
  resistance to in vitro degradation with DPP IV relative to native GIP: more resistant than native GIP
[4]; incubation with DPP IV, 0 h
  % Intact peptide remaining after time (h): 100%
[4]; isolated enzyme dpp iv, pH 7.8, incubation with DPP IV, 2 h, read-out: % Intact peptide remaining after time (h)
  remaining at 2 h, 1 mmol/l: 100%
[4]; isolated enzyme dpp iv, pH 7.8, incubation with DPP IV, 4 h, read-out: % Intact peptide remaining after time (h)
  remaining at 4 h, 1 mmol/l: 100%
[4]; isolated enzyme dpp iv, pH 7.8, incubation with DPP IV, 8 h, read-out: % Intact peptide remaining after time (h)
  remaining at 8 h, 1 mmol/l: 100%
[4]; isolated enzyme dpp iv, pH 7.8, incubation with DPP IV, 24 h, read-out: % Intact peptide remaining after time (h)
  remaining at 24 h, 1 mmol/l: 100%
[5]; 5.6 and 16.7 mM glucose, 10^-13 to 10^-8 M peptide
  insulin secretion from BRIN-BD11 cells: considerably greater insulinotropic response compared with native peptide
[5]; glucose-responsive clonal B-cells
  insulin-releasing potency relative to GIP: several orders of magnitude greater than GIP
